Assay results: US7259155B2, “Phosphonic diester derivatives” (Otsuka Pharmaceutical Factory, Inc., priority 2004, dated 2007)

Target: T1, ACAT-1 (Homo sapiens, UniProt P35610)
T1 construct: To 2.6 ml of broken homogenate having a protein concentration of 2.5 mg/ml was added 0.65 ml of 5×DOC/PC; endogenous in cells; host or cells: SW-13 cells (human adrenal cortical adenocarcinoma); broken homogenate solubilised with deoxycholate/PC and reconstituted into cholesterol/PC vesicles
T1 sequence (P35610 1-550): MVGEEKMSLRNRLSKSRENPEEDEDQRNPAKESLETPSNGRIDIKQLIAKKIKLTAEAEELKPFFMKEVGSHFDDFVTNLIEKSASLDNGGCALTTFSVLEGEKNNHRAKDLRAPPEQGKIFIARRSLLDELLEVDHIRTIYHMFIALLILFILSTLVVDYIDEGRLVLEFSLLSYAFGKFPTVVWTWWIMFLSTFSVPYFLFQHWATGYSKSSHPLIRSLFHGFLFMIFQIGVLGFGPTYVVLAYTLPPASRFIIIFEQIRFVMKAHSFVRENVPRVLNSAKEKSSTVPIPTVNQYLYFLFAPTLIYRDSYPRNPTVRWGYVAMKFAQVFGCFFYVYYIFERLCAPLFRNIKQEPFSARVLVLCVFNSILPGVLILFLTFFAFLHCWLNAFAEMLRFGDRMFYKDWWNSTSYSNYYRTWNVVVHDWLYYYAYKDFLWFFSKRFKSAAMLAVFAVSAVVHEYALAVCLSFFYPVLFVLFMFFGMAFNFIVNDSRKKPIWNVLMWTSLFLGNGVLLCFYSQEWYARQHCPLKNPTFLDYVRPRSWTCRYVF
Test: ACAT-1 Inhibitory Action Test 1 (reconstituted vesicle assay, enzyme solution from SW-13 cell broken homogenate)
Type: biochemical
Details: test substance 1×10^−3 mol/l in DMSO, 2.5 μl added to 200 μl enzyme solution + 50 μl substrate solution; 37° C., 30 minutes; decrease in total cholesterol ester vs DMSO control
Description: SW-13 cells (derived from human adrenal cortical adenocarcinoma) were cultured on a culture plate until confluence in an L-15 culture medium containing 10% fetal bovine serum (FBS) in a carbon dioxide incubator.
Broken homogenates were collected according to a published procedure (hypotonic shock and scrapping method, Anal. Biochem., 116, 298–302 (1981)), subjected to protein quantitation (Bradford method), and stored at −80° C. till use.
Chol/PC vesicles (Chol/PC=3.9 mM/12.8 mM) were prepared according to a method described by Chang et al. (Chang, T. Y. et al., Anal. Biochem., 157, 323–330 (1986)). […]
With respect to the hexane phase in the glass test tube, the solvent was removed under a nitrogen gas stream. […] Using a bio-imaging analyzer (BAS-2000II, manufactured by Fuji Photo Film Co., Ltd.), the ^14C of the cholesterol ester fraction was quantified.
With respect to the hexane phase in the scintillation vial, ^3H was counted after adding a scintillation cocktail. Based on the amount of ^3H in the [^3H]-cholesteryl oleate-containing ethanol, the extraction efficiency was calculated. Based on the extraction efficiency, the amount of total cholesterol ester produced was calculated. In comparison with the control, decrease in the amount of the total cholesterol ester produced when a test substance was used was expressed as ACAT-1 enzyme inhibition (%).

diethyl 4-(7-chloro-3-N-(4-methyl -benzylideneamin)-4(3H)-quinazolinon-2-yl)benzylphosphonate [Example 1]
ACAT-1 enzyme inhibition (%): 75%
